According to patent publication EP3685668B1, “COMPOSITION COMPRISING ACIBENZOLAR-S-METHYL AS EFFECTIVE INGREDIENT FOR CONTROLLING BURSAPHELENCHUS XYLOPHILUS DISEASE AND METHOD FOR CONTROLLING BURSAPHELENCHUS XYLOPHILUS USING SAME” (Industry Foundation of Chonnam National University, priority 2017, dated 2019):

How the values were obtained:
[1] = test system: Bursaphelenchus xylophilus; assay: Occurrence of pine wilt disease after trunk injection of induced resistance candidate materials, in vivo test in young red pine trees; details: red pine tree (Pinus densiflora), trunk injection 100 µℓ per tree, 30 days after inoculation
Procedure: By using the 15 types of an induced resistance elicitors which have been known to induce the plant resistance against various diseases as candidates, their controlling effect against pine wilt disease was examined. The control efficacy of candidates against pine wilt disease was analyzed according to an in vivo test using red pine tree (Pinus densiflora) which was 2-year old young pine trees (diameter of 5.5 mm or so, and height of about 35 mm).
As a candidate group of an induced resistance material, two kinds of acibenzolar-S-methyl (ASM), TDL (Tiadinil), ITL (Isotianil), PBZ (Probenzole), AZO (Azoxystrobin), VMA (Validamycin A), MeJA (Methyl jasmonate), BABA (DL-3-aminobutyric acid), 2,3-BDO (2,3-Butanediol), SA (salicyclic acid), GABA (r-Aminobutyric acid), glucan (Glucan), ER (Ergosterol), and AZA (Azelaic acid) were used. Only the use of acibenzolar-S-methyl is according to the invention. Injection of the chemicals was carried out by trunk injection method, i.e., at an angle of 45°, a borehole was created by using an electric drill with thickness of 1.5 mm on a pine stem part that is 5 to 10 cm above the soil surface, a tip (200 µℓ) was inserted to the hole, and, after dissolving the candidate material at concentration level of 200, 20, or 2 µg/mℓ in each solvent, the solution was injected in an amount of 100 µℓ per pine tree. After the injection of the chemical agent, the end part of the tip was sealed with parafilm.
The pine tree wilt nematodes (Bursaphelenchus xylophilus, National Institute of Forest Science (NIFoS), South Korea) was incubated at 25°C by feeding them with Botrytis cinerea, which have been cultured on a potato dextrose agar (PDA) medium, and after one week incubation, they were collected by Baermann funnel method and were adjusted to the level of 20,000 worms/mℓ by examining the number of the worms under an optical microscope. One week after the chemical treatment, the inoculation of the pine tree wilt nematodes was carried out by tree barking inoculation of 100 µℓ, i.e., 2,000 worms, per tree, and the result was determined 30 days after the inoculation. […] [Table 1] Occurrence rate of pine wilt disease in candidate group of induced resistance materials

[2] = test system: Bursaphelenchus xylophilus; assay: Control efficacy against pine wilt disease by trunk injection, foliar spraying or soil drenching, greenhouse, red pine trees; format: in vivo; details: red pine tree, observed for 80 days
Procedure: The control efficacy of acibenzolar-S-methyl, which shown to have the highest activity in Example 1, was determined by three different treatment methods, i.e., trunk injection, foliar spraying, and soil drenching. For in vivo pathogenesis test, 2-year old young red pine trees (diameter of 5.5 mm or so, and height of about 35 mm) were used like Example 2.
For the trunk injection, a borehole was created at an angle of 45° by using an electric drill with thickness of 1.5 mm on a pine stem part that is 5 to 10 cm above the soil surface, a tip (200 µℓ) was inserted to the hole, and the working solution of chemicals was injected in an amount of 100 µℓ per pine tree after dissolving acibenzolar-S-methyl at concentration of 0.2 or 10 mg/mℓ in an aqueous solution containing 10% acetone and 10% methanol. After the treatment, the end part of the tip was sealed with parafilm, and a small hole was created thereon as an airflow hole. For the foliar spraying, a pre-treatment with Tween 20 (250 µg/mℓ) was carried out at 5 mℓ per pine tree to help the adsorption of the chemical on pine leaves, followed by drying for 2 hours. After drying, acibenzolar-S-methyl was dissolved at concentration of 1.6 mg/mℓ in an aqueous solution containing 10% acetone and Tween 20 (250 µg/mℓ) and the dissolved solution was filled in microsprayer and was applied 5 mℓ per pine tree by foliar spraying. For the soil drenching, acibenzolar-S-methyl was dissolved at concentration level of 0.2 mg/mℓ in an aqueous solution containing 10% acetone and Tween 20 (250 µg/mℓ), and this solution was used for soil drenching in a pot with planted pine tree, 40 mℓ per pine tree. […] [Table 3] The control efficacy of acibenzolar-S-methyl against pine wilt disease by various treatment methods

[3] = test system: Bursaphelenchus xylophilus; assay: as above; format: in vivo; details: red pine tree, Trunk injection, 20,000 µg/mℓ, observed for 80 days
[4] = test system: Bursaphelenchus xylophilus; assay: In vitro nematicidal activity, 96-well microplate; details: after 3 days
Procedure: To test the nematicidal activity of acibenzolar-S-methyl, a suspension of Bursaphelenchus xylophilus was diluted in a 96-well microplate to have 50 worms/99 µℓ in each well and used for the treatment. […] Each treatment was repeated 3 times, and "A Pharm" (emamectin benzoate, 2.15%), which is a chemical pesticide, was used as a control group. After the treatment, the 96-well plate was kept in a plastic box having water-soaked wipes spread on the bottom to maintain 100% humidity, and, after covering the box with black cloth, the box was stored in a dark state with blockage of light. The observation was made after 3 days. […] [Table 2] Nematicidal activity of acibenzolar-S-methyl against Bursaphelenchus xylophilus

[5] = Foliar spraying, 1,600 µg/mℓ, 5 mℓ per tree
[6] = Soil drenching, 200 µg/mℓ, 40 mℓ per tree

Compound	Occurrence rate of pine wilt disease: Number of pine trees showing wilt symptoms / Number of pine trees used for the test ([1]; 2 µg/mℓ)	Occurrence rate of pine wilt disease: Number of pine trees showing wilt symptoms / Number of pine trees used for the test ([1]; 20 µg/mℓ)	Occurrence rate of pine wilt disease: Number of pine trees showing wilt symptoms / Number of pine trees used for the test ([1]; 200 µg/mℓ)	Control value (%) [2, 5]	Disease occurrence rate (%) [2, 5]	Control value (%) ([2]; Foliar spraying, 1,600 µg/mℓ, 5 mℓ per tree, listed as emamectin benzoate)	Control value (%) [2, 6]	Disease occurrence rate (%) [2, 6]	Control value (%) ([2]; Soil drenching, 200 µg/mℓ, 40 mℓ per tree, listed as emamectin benzoate)	Control value (%) ([2]; Trunk injection, 200 µg/mℓ)	Disease occurrence rate (%) ([2]; Trunk injection, 200 µg/mℓ)	Control value (%) ([2]; Trunk injection, 200 µg/mℓ, listed as emamectin benzoate)	Control value (%) [3]	Disease occurrence rate (%) [3]	Nematicidal rate (%) ([4]; 0.11 µg/mℓ)	Nematicidal rate (%) ([4]; 0.33 µg/mℓ)	Nematicidal rate (%) ([4]; 1 µg/mℓ)
O=C(O)c1ccccc1O [SA, salicyclic acid]	2/3	1/3	0/3														
emamectin benzoate				10%	64%	no control activity	1%	70%	no control activity	7%	66%	not shown at all	100%	0%	98.77%	100%	100%
